Laboratory results from patent publication US8889705B2, “Noscapine analogs and their use in treating cancers” (Emory University, priority 2007, dated 2014).
Where two headings read alike, the source gives them in different places.

Assays:
MDA-MB-231 cells [1] = assay: Sulforhodamine B cell proliferation assay; assay type: cell-based; settings: Homo sapiens; MDA-MB-231, 72 hours, SRB
Procedure: (§1) Sulforhodamine B (SRB) assay: The cell proliferation assay was performed in 96-well plates as described previously. Adherent cells (MCF-7 and MDA-MB-231) were seeded in 96-well plates at a density of 5×10^3 cells per well. They were treated with increasing concentrations of the halogenated analogs the next day while in log-phase growth. After 72 hours of drug treatment, cells were fixed with 50% trichloroacetic acid and stained with 0.4% sulforhodamine B dissolved in 1% acetic acid. After 30 minutes, cells were then washed with 1% acetic acid to remove the unbound dye. The protein-bound dye was extracted with 10 mM Tris base to determine the optical density at 564-nm wavelength.

tubulin [2] = molecular target: T1, tubulin; settings: values with literature reference [18], [12], [43]; read-out: dissociation constant (Kd) for binding to tubulin; cited from earlier work
T1 construct: other: 2 μM tubulin, 45 min at 37° C., double reciprocal plot; rate and extent of tubulin polymerization; other: 25 μM or 100 μM

MCF-7 cells [3] = assay: Sulforhodamine B cell proliferation assay; assay type: cell-based, human; settings: for IC50: MCF-7, 72 hours, SRB
Procedure: as §1

MDA-MB-231 cells [4] = assay: DAPI staining, cell morphology by fluorescence microscopy; assay type: cell-based, human; settings: 25 μM, 72 hours
Procedure: Cell morphology was evaluated by fluorescence microscopy following DAPI staining (Vectashield, Vector Labs, Inc., Burlingame, Calif.). MDA-MB-231 cells were grown on poly-L-lysine coated coverslips in 6-well plates and were treated with the halogenated analogs at 25 μM for 72 hours. After incubation, coverslips were fixed in cold methanol and washed with PBS, stained with DAPI, and mounted on slides. Images were captured using a BX60 microscope (Olympus, Tokyo, Japan) with an 8-bit camera (Dage-MTI, Michigan City, Ind.) and IP Lab software (Scanalytics, Fairfax, Va.). Apoptotic cells were identified by features characteristic of apoptosis (e.g. nuclear condensation, formation of membrane blebs and apoptotic bodies).

MCF-7 cells [5] = assay: Cell cycle analysis (propidium iodide, flow cytometry); assay type: cell-based, human; settings: for G0/G1 / G2/M / S / Sub-G1: MCF-7, 25 μM, mean ± S.E.M.; for percent sub-G1 cells compared with noscapine: MCF-7, lower doses (5 μM and 10 μM), 72 hours
Procedure: The flow cytometric evaluation of the cell cycle status was performed as described previously. Briefly, 2×10^6 cells were centrifuged, washed twice with ice-cold PBS, and fixed in 70% ethanol. Tubes containing the cell pellets were stored at 4° C. for at least 24 hours. Cells were then centrifuged at 1000×g for 10 min and the supernatant was discarded. The pellets were washed twice with 5 ml of PBS and then stained with 0.5 ml of propidium iodide (0.1% in 0.6% Triton-X in PBS) and 0.5 ml of RNase A (2 mg/ml) for 45 minutes in dark. Samples were then analyzed on a FACSCalibur flow cytometer (Beckman Coulter Inc., Fullerton, Calif.).

CEM cells = assay: In vitro cell proliferation MTS assay; assay type: cell-based; settings: Homo sapiens, CCRF-CEM, 72 hours
Procedure: (§2) Suspension cells (CEM, CEMNLB100 and CEM/VM-1-5) were cultured in RPMI-1640 media containing 10% FBS and then seeded into 96-well plates at a density of 5×10^3 cells per well and were treated with increasing gradient concentrations of 9-nitro-nos for 72 hours. Measurement of cell proliferation was performed colorimetrically by 3-(4,5-dimethylthiazol-2-yl)-5-(3-carboxymethoxyphenyl)-2-(4-sulphophenyl)-2H-tetrazolium, inner salt (MTS) assay, using the CellTiter96 AQueous One Solution Reagent (Promega, Madison, Wis.). Cells were exposed to MTS for 3 hours and absorbance was measured using a microplate reader (Molecular Devices, Sunnyvale, Calif.) at an optical density (OD) of 490 nm. The percentage of cell survival as a function of drug concentration for both the assays was then plotted to determine the IC50 value, which stands for the drug concentration needed to prevent cell proliferation by 50%.
as §2, with “(CEM)” for “(CEM, CEMNLB100 and CEM/VM-1-5)”, “were” for “were cultured in RPMI-1640 media containing 10% FBS and then”, “increasing” for “increasing gradient”, “all halogenated analogs” for “9-nitro-nos”

tubulin [6] = molecular target: T1, tubulin; assay: Tubulin binding assay (fluorescence titration, quenching of intrinsic tubulin fluorescence); design: species or system mammalian; settings: 2 μM tubulin, 45 min at 37° C., double reciprocal plot; read-out: dissociation constant (Kd) for binding to tubulin
Procedure: Fluorescence titration for determining the tubulin binding parameters was performed as described previously (Gupta and Panda, 2002). In brief, 9-nitro-nos (0-100 μM) was incubated with 2 μM tubulin in 25 mM PIPES, pH 6.8, 3 mM MgSO4 and 1 mM EGTA for 45 min at 37° C. The relative intrinsic fluorescence intensity of tubulin was then monitored in a JASCO FP-6500 spectrofluorometer (JASCO, Tokyo, Japan) using a cuvette of 0.3-cm path length, and the excitation wavelength was 295 nm. The fluorescence emission intensity of 9-nitro-nos at this excitation wavelength was negligible. A 0.3-cm path-length cuvette was used to minimize the inner filter effects caused by the absorbance of 9-nitro-nos at higher concentration ranges. In addition, the inner filter effects were corrected using a formula Fcorrected=Fobserved·antilog [(Aex+Aem)/2], where Aex is the absorbance at the excitation wavelength and Aem is the absorbance at the emission wavelength. The dissociation constant (Kd) was determined by the formula: 1/B=Kd/[free ligand]+1, where B is the fractional occupancy and [free ligand] is the concentration of free noscapine or 9-nitro-nos. The fractional occupancy (B) was determined by the formula B=ΔF/ΔFmax, where ΔF is the change in fluorescence intensity when tubulin and its ligand are in equilibrium and ΔFmax is the value of maximum fluorescence change when tubulin is completely bound with its ligand. ΔFmax was calculated by plotting 1/ΔF versus 1/ligand using total ligand concentration as the first estimate of free ligand concentration.
Fluorescence titration for determining the tubulin binding parameters was performed as described previously. In brief, 9-F-nos, 9-Cl-nos, 9-Br-nos or 9-I-nos (0-100 μM) was incubated with 2 μM tubulin in 25 mM PIPES, pH 6.8, 3 mM MgSO4, and 1 mM EGTA for 45 min at 37° C. The relative intrinsic fluorescence intensity of tubulin was then monitored in a JASCO FP-6500 spectrofluorometer (JASCO, Tokyo, Japan) using a cuvette of 0.3-cm path length, and the excitation wavelength was 295 nm. The fluorescence emission intensity of noscapine and its derivatives at this excitation wavelength was negligible. A 0.3-cm path-length cuvette was used to minimize the inner filter effects caused by the absorbance of these agents at higher concentration ranges. In addition, the inner filter effects were corrected using a formula F corrected=F observe·antilog [(Aex+Aem)/2], where Aex is the absorbance at the excitation wavelength and Aem is the absorbance at the emission wavelength. The dissociation constant (Kd) was determined by the formula: 1/B=Kd/[free ligand]+1, where B is the fractional occupancy and [free ligand] is the concentration of 9-F-nos, 9-Cl-nos, 9-Br-nos or 9-I-nos. The fractional occupancy (B) was determined by the formula B=ΔF/ΔFmax, where ΔF is the change in fluorescence intensity when tubulin and its ligand are in equilibrium and ΔFmax is the value of maximum fluorescence change when tubulin is completely bound with its ligand. ΔFmax was calculated by plotting 1/ΔF versus 1/[free ligand].

SMILES	IC50 (MDA-MB-231 cells [1]) [µM]	IC50 (MCF-7 cells [3]; Homo sapiens, MCF7, 72 h) [µM]	nuclear morphology (features of apoptotic cells), DAPI (MDA-MB-231 cells [4])	G0/G1 (MCF-7 cells [5]; 0 h) [%]	G2/M (MCF-7 cells [5]; 0 h) [%]	S (MCF-7 cells [5]; 0 h) [%]	Sub-G1 (MCF-7 cells [5]; 0 h) [%]	G0/G1 (MCF-7 cells [5]; 24 h) [%]	G2/M (MCF-7 cells [5]; 24 h) [%]	S (MCF-7 cells [5]; 24 h) [%]	Sub-G1 (MCF-7 cells [5]; 24 h) [%]	G0/G1 (MCF-7 cells [5]; 48 h) [%]	G2/M (MCF-7 cells [5]; 48 h) [%]	S (MCF-7 cells [5]; 48 h) [%]	Sub-G1 (MCF-7 cells [5]; 48 h) [%]	G0/G1 (MCF-7 cells [5]; 72 h) [%]	G2/M (MCF-7 cells [5]; 72 h) [%]	S (MCF-7 cells [5]; 72 h) [%]	Sub-G1 (MCF-7 cells [5]; 72 h) [%]	IC50 (CEM cells) [µM]	other results
COc1ccc2c(c1OC)C(=O)O[C@@H]2[C@H]1c2c(c(Br)c3c(c2OC)OCO3)CCN1C [9-Br-nos, (S)-6,7-dimethoxy-3-((R)-4-methoxy-6-methyl-9-bromo-5,6,7,8-tetrahydro-[1,3]dioxolo[4,5-g]isoquinolin-5-yl)isobenzofuran-1(3H)-one]	3.3 ± 0.4	1 ± 0.2	condensed chromosomes, numerous fragmented micronuclei, and apoptotic bodies are evident	53.3 ± 2.8	28.9 ± 4.4	12.7 ± 1.8	0.2 ± 0.1	10.4 ± 1.8	61.9 ± 3.6	3.4 ± 1.2	6.9 ± 2.4	6.5 ± 2.5	43.8 ± 3.4	2.8 ± 0.7	35.1 ± 3.5	4.6 ± 2.1	33.7 ± 3.5	2.4 ± 1.6	49.6 ± 2.7	1.9 ± 0.2	Kd (tubulin [2]): 54 ± 9.1 µM; fold higher cytotoxic activity than noscapine (MCF-7 cells [3]; MCF-7, ratio of IC50): ~40 fold; percent sub-G1 cells compared with noscapine (MCF-7 cells [5]): higher; Kd (tubulin [6]): 54 ± 9.1 µM
COc1ccc2c(c1OC)C(=O)OC2C1c2c(c(Cl)c3c(c2OC)OCO3)CCN1C (stereo not shown) [9-Cl-nos]	1.9 ± 0.3	1.9 ± 0.3	condensed chromosomes, numerous fragmented micronuclei, and apoptotic bodies are evident	69 ± 5.6	20.7 ± 3.4	7.5 ± 1.6	1.4 ± 0.5	11.5 ± 2.7	59.7 ± 5.2	4.3 ± 1.4	15.3 ± 2.5	8 ± 3.3	42.4 ± 3.8	4 ± 1.1	37.8 ± 3.2	5.9 ± 1.9	35.3 ± 3.9	4.1 ± 1.4	50.2 ± 2.5	1.2 ± 0.3	Kd (tubulin [2]): 40 ± 8 µM; IC50 (MCF-7 cells [3]): 3.5 ± 0.4 µM; percent sub-G1 cells compared with noscapine (MCF-7 cells [5]): higher; Kd (tubulin [6]): 40 ± 8 µM
COc1ccc2c(c1OC)C(=O)O[C@@H]2[C@H]1c2c(c(F)c3c(c2OC)OCO3)CCN1C [9-F-nos, (S)-6,7-dimethoxy-3-((R)-4-methoxy-6-methyl-9-fluoro-5,6,7,8-tetrahydro-[1,3]dioxolo[4,5-g]isoquinolin-5-yl)isobenzofuran-1(3H)-one]	8.2 ± 0.6	3.3 ± 0.8	condensed chromosomes, numerous fragmented micronuclei, and apoptotic bodies are evident	67.7 ± 5.6	18.5 ± 2.2	11.9 ± 1.5	0.2 ± 0.04	10.8 ± 2.4	65.9 ± 4.4	3.8 ± 1.1	6.8 ± 2.1	7.9 ± 2.8	43.7 ± 2.9	3.5 ± 0.8	34.5 ± 2.5	5.2 ± 2.2	34.4 ± 3.4	3.6 ± 1.5	48.6 ± 3.3	2.3 ± 0.7	percent sub-G1 cells compared with noscapine (MCF-7 cells [5]): higher; Kd (tubulin [6]): 81 ± 8 µM
COc1ccc2c(c1OC)C(=O)O[C@@H]2[C@H]1c2c(c(I)c3c(c2OC)OCO3)CCN1C [9-I-nos, (S)-6,7-dimethoxy-3-((R)-4-methoxy-6-methyl-9-iodo-5,6,7,8-tetrahydro-[1,3]dioxolo[4,5-g]isoquinolin-5-yl)isobenzofuran-1(3H)-one]	25.6 ± 2.4	45.6 ± 3.1	condensed chromosomes, numerous fragmented micronuclei, and apoptotic bodies are evident	60.6 ± 4.6	23.1 ± 3.7	13.9 ± 2.3	0.3 ± 0.2	17 ± 2.3	44.5 ± 5.1	3.1 ± 1.3	7.7 ± 1.7	15.4 ± 4.5	25.9 ± 4.1	2.9 ± 0.6	28.1 ± 3.1	17 ± 1.9	20.7 ± 2.2	4.9 ± 2.2	30.1 ± 3.1	38.9 ± 3.5	Kd (tubulin [6]): 22 ± 4 µM
